The values that follow come from paper PMC7549094 (Journal of Medicinal Chemistry, 2020).

The structures appear in SMILES notation. Values after ≈ are worked out from the molar mass of the structure shown. Like-named read-outs stand apart in the source and are kept apart here.

A short description of series [1]: pharmacokinetics in cynomolgus monkey. The note with it: monkey plasma; oral administration of 1; dose-normalized AUC. Type of series: in vivo. As to the method: In Vivo Intravenous PK Study in Non-human Primates. The IV PK study in non-human primates was carried out at Covance research facility in Greenfield, Indiana. The research facility is accredited by AAALAC (Association for Assessment and Accreditation of Laboratory Animal Care). The male Cynomolgus monkeys were approximately 4.5 years of age and weighed 4.2 to 5.0 kg. 1 was administered […]
75% polyethylene glycol (PEG300) as described in the earlier section. Doses were administered once by intravenous injection via the saphenous vein at a dose of 0.3 mg/kg with a dosing volume of 0.1 ml/kg.
Clinical observations and food consumption determinations were performed on all animals. Blood samples for PK analysis were collected from all animals via the femoral vein approximately 0.083, 0.25, […]
In Vivo Oral PK Study in Non-human Primates. The PO PK study in non-human primates was conducted at a Novartis facility using Non-naïve male Cynomolgus monkeys weighing 3.8 to 4.0 kg. The monkeys were fasted overnight and fed 2 hours post-dose. 1 was formulated in a suspension of 0.5% […]
gavaged with 5 mL/kg of the suspension for a total dose of 10 mg/kg. The gavage tubing was flushed with 5 mL of water to ensure the gavage tubing was cleared of the formulation. Blood samples for PK analysis were collected from all animals via the saphenous veins approximately 0.25, 0.5, 1, 2, 4, 7, 24, 48, and 72 hours post-dose.

Series [2] in a line: pharmacokinetics, summary across preclinical species. Conditions: mouse, rat, and monkey plasma; single oral dose of 1. Type of series: in vivo, rat, dog, cynomolgus monkey.
A short description of series [3]: metabolite profile in rat hepatocytes. Type of series: in vitro ADME. The note with it: 10 μM of 1 for 4 h, UV 250 nm, normalized to largest peak.
A short description of series [4]: metabolite profile in dog hepatocytes. Type of series: in vitro ADME. Conditions: 10 μM of 1 for 4 h, UV 250 nm, normalized to largest peak.
The nature of series [5]: metabolite profile in monkey hepatocytes. Type of series: in vitro ADME. The note with it: 10 μM of 1 for 4 h, UV 250 nm, normalized to largest peak.
A short description of series [6]: metabolite profile in human hepatocytes. Type of series: in vitro ADME. The note with it: 10 μM of 1 for 4 h, UV 250 nm, normalized to largest peak.
The conditions of series [7]: mouse plasma; oral administration of 1; dose-normalized AUC.
Description: In Vivo PK Studies in Mice.
(§1) The solution was filtered using a 0.45 m syringe filter before dosing. Two male Balb/c mice were administered 1 intravenously via the lateral tail
(§2) vein at 5 mg/kg with a dose volume of 2.0 mL/kg. 1 was also formulated in a suspension of 0.5%
(§3) methylcellulose with 0.5% Tween 80 (0.5% MC/0.5% Tw80) in water at 2.5 mg/mL. A group of mice
(§4) (n=3) were administered 1 orally via gavage at 20 mg/kg with a dose volume of 8.0 mL/kg.
(§5) The mouse blood samples were centrifuged to separate plasma and the plasma samples were frozen at -
In Vivo PK Studies in Rats.
Two male Wistar rats were administered
(§6) 1 intravenously via the lateral tail vein at 3 mg/kg with a dose volume of 1.0 mL/kg. 1 was also formulated
(§7) in a suspension of 0.5% methylcellulose with 0.5% Tween 80 (0.5% MC/0.5% Tw80) in water at 2.0
(§8) mg/mL. The second group of rats (n=3) were administered 1 orally via gavage at 10 mg/kg in suspension
(§9) with a dose volume of 5.0 mL/kg. Six blood samples of 100 μL each were collected serially from each
(§10) animal via the saphenous vein up to 24 hours after dosing. The rat blood samples were centrifuged to
(§11) separate plasma and the plasma samples were frozen at -20°C until analysis.
In Vivo PK Studies in Dogs.
(§12) The solution was filtered using a 0.45 m syringe filter before dosing. Three male Beagle dogs were administered 1 intravenously via saphenous
(§13) vein at 0.3 mg/kg with a dose volume of 0.1 mL/kg. 1 was also formulated in a suspension of 0.5%
(§14) methylcellulose with 0.5% Tween 80 (0.5%MC/0.5% Tween 80) in water at 1.0 mg/mL. The second
(§15) group of male dogs (n=2) were administered 1- orally via gavage at 1.0 mg/kg with a dose volume of 1.0
(§16) mL/kg. Seven blood samples of 250 µL each were collected serially from each animal via the jugular vein
(§17) The dog blood samples were centrifuged to separate plasma and the plasma
(§18) samples were frozen at -20 °C until analysis.
The conditions of series [8]: rat plasma; oral administration of 1; dose-normalized AUC.
For series [9] the following is noted: dog plasma; oral administration of 1; dose-normalized AUC.
Description: In Vivo PK Studies in Mice.
as §1, §2, §3, §4, §5
In Vivo PK Studies in Rats.
Two male Wistar rats were administered
as §6, §7, §8, §9, §10, §11
In Vivo PK Studies in Dogs.
as §12, §13, §14, §15, §16, §17, §18
The target of series [10] is T1, purified L. donovani proteasome (Leishmania donovani, UniProt A0A3Q8IIY4+A0A3S7XA80).
T1 sequence (A0A3Q8IIY4 100-302): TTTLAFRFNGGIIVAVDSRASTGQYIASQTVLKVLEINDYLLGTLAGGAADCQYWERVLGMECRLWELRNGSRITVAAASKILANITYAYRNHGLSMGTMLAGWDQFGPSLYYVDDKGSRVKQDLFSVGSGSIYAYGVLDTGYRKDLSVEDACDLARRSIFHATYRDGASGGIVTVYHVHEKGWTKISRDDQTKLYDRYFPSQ
T1 sequence (A0A3S7XA80 1-206): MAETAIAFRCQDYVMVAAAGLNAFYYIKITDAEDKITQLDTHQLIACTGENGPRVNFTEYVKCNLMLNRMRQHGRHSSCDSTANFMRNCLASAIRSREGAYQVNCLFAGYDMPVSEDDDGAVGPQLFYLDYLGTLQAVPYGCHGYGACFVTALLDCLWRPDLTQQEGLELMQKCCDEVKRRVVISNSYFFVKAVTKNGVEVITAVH
Briefly: chymotrypsin-like activity of purified L. donovani proteasome. Type of series: biochemical. The note with it: half-maximum inhibition of chymotrypsin-like activity of purified L. donovani proteasome; mean, n = 4 technical replicates.

The test system of series [11] is intramacrophage L. donovani amastigotes. Briefly: L. donovani amastigote proliferation within primary mouse macrophages. Type of series: cell-based. The note with it: Leishmania donovani, Macrophage.
Series [12] can be described thus: high-throughput solubility pH 6.8. Type of series: physicochemical. Conditions: high-throughput assay format, read-out: HT sol. pH 6.8.
The conditions of series [13]: microsomal extraction ratio, 1 h incubation in microsomes.
For series [14] the following is noted: microsomal extraction ratio, 1 h incubation in microsomes. The source holds these as a separate data set.
The conditions of series [15]: microsomal extraction ratio, 1 h incubation in microsomes. The source holds these as a separate data set.
For series [16] the following is noted: microsomal extraction ratio, 1 h incubation in microsomes. The source holds these as a separate data set.
Series [17] deals with wild-type (PSMB4^WT) L. tarentolae proteasome (Leishmania tarentolae, UniProt A0A640KTY7+A0A640KW57). Briefly: chymotrypsin-like activity of purified wild-type L. tarentolae proteasome. Conditions: n = 3 technical replicates. Type of series: biochemical.
Sequence of wild-type (PSMB4^WT) L. tarentolae proteasome (A0A640KW57 100-302): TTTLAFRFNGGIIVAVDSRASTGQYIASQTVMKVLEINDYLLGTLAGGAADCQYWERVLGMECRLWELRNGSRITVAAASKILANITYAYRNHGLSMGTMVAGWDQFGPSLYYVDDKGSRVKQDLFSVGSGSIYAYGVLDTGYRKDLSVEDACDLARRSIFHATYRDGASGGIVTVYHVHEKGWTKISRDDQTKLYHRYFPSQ
Sequence of wild-type (PSMB4^WT) L. tarentolae proteasome (A0A640KTY7 1-206): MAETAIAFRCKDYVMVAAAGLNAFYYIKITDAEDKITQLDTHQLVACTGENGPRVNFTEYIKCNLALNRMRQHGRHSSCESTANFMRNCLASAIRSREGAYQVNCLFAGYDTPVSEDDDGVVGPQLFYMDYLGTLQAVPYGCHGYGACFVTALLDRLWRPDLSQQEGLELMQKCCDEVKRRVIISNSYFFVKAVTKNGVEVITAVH
The nature of series [18]: metabolite profile in mouse hepatocytes. Type of series: in vitro ADME. Conditions: 10 μM of 1 for 4 h, UV 250 nm, normalized to largest peak.

With `Cc1cccnc1-c1cnc2nc(-c3cc(NC(=O)c4oc(CO)nc4C)ccc3F)nn2c1` [compound 8], the “metabolite exposure relative to 1” value in [1] was 5.1%; in series [2], 0.2–5%; in series [7], 0.2%; in series [8], 1.5%; in [9], 120%. The abundance rat entry in [3] is given as “+ (+ ≤25%)”. For the same compound, in [4], the abundance dog entry is recorded as “++ (++ ≤ 75%>25%)”. In [5], the abundance monkey result is on record as “+ (+ ≤25%)”. For the same compound, the abundance human result in series [6] is given as “+ (+ ≤25%)”.
What is called IC50 is the concentration that inhibits the measured activity by half. In general, EC50 refers to the concentration needed to bring the measured effect to its halfway point. The compound `Cc1nc(C)c(C(=O)Nc2ccc(F)c(-c3nc4ncc(-c5ncccc5C(F)F)cn4n3)c2)o1` [compound 3] showed a half-maximal inhibitory concentration (IC50) in [10] of 60 nM. The compound further came in with an EC50 in series [11] of 110 nM. In [12], the solubility kinetic is 21 µM (≈ 10.1 µg/mL). Besides, the ER mouse in series [13] was 0.51. Also, the ER rat in [14] is reported as less than 0.18. For the same compound, the ER human in [15] is 0.55. Also, in series [16], the ER dog is 0.57.
In series [17], `CC(C)C[C@H](NC(=O)[C@H](Cc1ccccc1)NC(=O)c1cnccn1)B(O)O` [Bortezomib, bortezomib, reference compound] registered an IC50 of 4 nM.
Take `COc1cccnc1-c1cnc2nc(-c3cc(NC(=O)c4oc(C)nc4C)ccc3F)nn2c1` [compound 5]: the EC50 in series [11] amounted to 70 nM. The solubility kinetic in [12] stood at 7 µM (≈ 3.22 µg/mL). Also, in [13], the ER mouse turned out to be 0.4. Besides, the ER human in [15] is reported as less than 0.21. Also, the ER dog in [16] was found to be 0.56.
The compound `Cc1nc(C)c(C(=O)Nc2ccc(F)c(-c3nc4ncc(-c5ncccc5CO)cn4n3)c2)o1` [compound 6] showed an IC50 in [10] of 70 nM. This compound also yielded an EC50 in series [11] of 500 nM. Further, the “metabolite exposure relative to 1” value was 1.7% in series [1], “less than 10%” in [2], 1.5% in series [7] and 1.5% in series [8]. Also, in series [18], the abundance mouse entry is “+ (+ ≤25%)”. Moreover, in series [3], the abundance rat entry was “+ (+ ≤25%)”. Also, the abundance dog result in series [4] was “+ (+ ≤25%)”. Further, in [5], the abundance monkey entry is listed as “+ (+ ≤25%)”. For the same compound, the abundance human result in series [6] is on record as “+ (+ ≤25%)”.
In [10], `Cc1nc(C)c(C(=O)Nc2ccc(F)c(-c3nc4ncc(-c5ncccc5Cl)cn4n3)c2)o1` [compound 4] had an IC50 of 100 nM. For the same compound, a half-maximal effect in series [11] (EC50) was put at 50 nM. In series [12], the solubility kinetic was 7 µM (≈ 3.25 µg/mL).
For the compound `Cc1nc(C)c(C(=O)Nc2ccc(F)c(-c3nc4ncc(-c5ccccn5)cn4n3)c2)o1` [compound 2], in series [14], the ER rat was less than 0.27. In addition, in [15], the ER human was found to be 0.3. For the same compound, the ER dog in series [16] is 0.46.
As for `Cc1nc(CO)c(C(=O)Nc2ccc(F)c(-c3nc4ncc(-c5ncccc5C)cn4n3)c2)o1` [compound 7], the “metabolite exposure relative to 1” value in series [1] was 11%; in [2], 5–17%; in [7], 4.5%; in [8], 17%. The abundance mouse result in series [18] is “+ (+ ≤25%)”. In addition, the abundance rat entry in series [3] is recorded as “+ (+ ≤25%)”. The abundance dog result in [4] was “+ (+ ≤25%)”. Moreover, in series [5], the abundance monkey entry is “+ (+ ≤25%)”. Further, the abundance human entry in [6] is reported as “+ (+ ≤25%)”.
